Source: patent US10730833B2, “Synthesis of diindolylmethanes and indolo[3,2-b]carbazoles, compounds formed thereby, and pharmaceutical compositions containing them” (Wisconsin Alumni Research Foundation, priority 2014, dated 2020)

Molecular target: AhR (Homo sapiens (Human), UniProt P35869)
Test: ethoxyresorufin-O-deethylase (EROD) assay, AhR activation in HepG2 cells
Assay type: cell-based
Description: The human Hep G2 cell line from the Small Molecule Screening and Synthesis Facility (UWCCC, Madison, Wis.) and was maintained in DMEM medium supplemented with 10% FBS. Cells were incubated at 37° C. in a humidified atmosphere supplemented with 5% CO2.
Preparation of cells: Cells were cleaved from T75 flasks with 0.05% trypsin. The cells were then collected by spinning at 1 g for 4 min. Excess media containing trypsin was removed from the pellet, which was then re-suspended in growth media. The cells were then counted using a hemocytometer. Cells were plated in sterile 96-well clear bottom black culture plates at a density of 20,000 cells per well in 0.1 mL of media. The cells were then incubated for 24 h at 37° C. in a humidified atmosphere supplemented with 5% CO2.
The ethoxyresorufin-O-deethylase (EROD) assay was performed on cell cultures of human Hep G2 cells. Briefly, 24 h after plating, cells in 96-well plates were treated with AhR agonists and allowed to incubate for 24 h. Each well was then rinsed with 200 uL of PBS buffer twice. To each well was then added 100 uL of 150 nM solution of 7-ethoxyresurufin and allowed to incubate for 2 h. Fluorescence measurements were obtained with a Safire II micro plate reader with excitation at 520 nm with a 25 nm bandwidth and emission at 595 nm with a 20 nm bandwidth.
The bioactivity of malassezin analogs was then investigated. The well-documented ethoxyresorufin-O-deethylase (EROD) assay was used to determine the EC50 values of the compounds towards AhR activation in HepG2 cells. Donato, M. T.; Gomezlechon, M. J.; Castell, J. V. Anal. Biochem. 1993, 213, 29; van Tonder, J. J., University of Pretoria Z.A., Thesis, 2011. This assay measures the induction of cytochrome P450-1A1 (CYP1A1), which is a major outcome of AhR activation. Whyte, J. J.; Jung, R. E.; Schmitt, C. J.; Tillitt, D. E. Crit. Rev. Toxicol. 2000, 30, 347. CYP1A1 selectively converts 7-ethoxyresorufin to the fluorescent product resorufin.

Sequence of AhR (P35869 11-848): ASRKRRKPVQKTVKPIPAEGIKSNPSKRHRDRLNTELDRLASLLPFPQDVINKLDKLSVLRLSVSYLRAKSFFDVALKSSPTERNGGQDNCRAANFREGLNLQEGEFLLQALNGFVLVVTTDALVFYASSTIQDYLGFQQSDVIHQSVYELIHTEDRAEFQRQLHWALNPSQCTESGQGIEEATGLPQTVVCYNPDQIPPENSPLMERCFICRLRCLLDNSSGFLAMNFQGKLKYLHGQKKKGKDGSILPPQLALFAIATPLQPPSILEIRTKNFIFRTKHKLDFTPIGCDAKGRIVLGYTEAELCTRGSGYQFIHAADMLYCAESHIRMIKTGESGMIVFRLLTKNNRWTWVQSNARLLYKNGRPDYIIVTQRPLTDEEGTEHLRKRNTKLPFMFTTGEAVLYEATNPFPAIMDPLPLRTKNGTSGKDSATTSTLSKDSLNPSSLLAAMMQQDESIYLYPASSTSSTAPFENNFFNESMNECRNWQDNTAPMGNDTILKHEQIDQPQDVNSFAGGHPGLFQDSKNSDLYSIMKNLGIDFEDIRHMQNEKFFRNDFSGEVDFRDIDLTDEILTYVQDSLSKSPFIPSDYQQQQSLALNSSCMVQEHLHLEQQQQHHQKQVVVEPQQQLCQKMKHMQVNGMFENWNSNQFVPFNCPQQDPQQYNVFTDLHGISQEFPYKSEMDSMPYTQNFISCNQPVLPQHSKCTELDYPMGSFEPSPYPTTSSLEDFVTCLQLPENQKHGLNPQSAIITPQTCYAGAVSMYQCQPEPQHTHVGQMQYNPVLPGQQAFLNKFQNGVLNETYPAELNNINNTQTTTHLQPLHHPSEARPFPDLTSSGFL

O=Cc1c(Cc2c[nH]c3ccc(Cl)cc23)[nH]c2ccccc12 [Compound 11a]
AhR potency (EC50) compared with malassezin, the positive control: more potent than the positive control

O=Cc1c(Cc2c[nH]c3c(Cl)cccc23)[nH]c2ccccc12 [Compound 11b]
AhR potency (EC50) compared with malassezin, the positive control: slightly weaker agonist

COc1ccc2[nH]cc(Cc3[nH]c4ccccc4c3C=O)c2c1 [Compound 11c]
AhR potency (EC50) compared with malassezin, the positive control: behaved similarly to malassezin

Cn1cc(Cc2[nH]c3ccccc3c2C=O)c2ccccc21 [Compound 11d]
AhR potency (EC50) compared with malassezin, the positive control: about five times lower than that of malassezin
